Assay results reported in US20120157379A1, “Gastric Inhibitory Peptide Variants and Their Uses” (priority 2009, published 2012).

T1: GIP receptor (GIPR) (Homo sapiens, UniProt P48546)
T1 construct: host or cells: HEK293T
T1 sequence (P48546 22-466): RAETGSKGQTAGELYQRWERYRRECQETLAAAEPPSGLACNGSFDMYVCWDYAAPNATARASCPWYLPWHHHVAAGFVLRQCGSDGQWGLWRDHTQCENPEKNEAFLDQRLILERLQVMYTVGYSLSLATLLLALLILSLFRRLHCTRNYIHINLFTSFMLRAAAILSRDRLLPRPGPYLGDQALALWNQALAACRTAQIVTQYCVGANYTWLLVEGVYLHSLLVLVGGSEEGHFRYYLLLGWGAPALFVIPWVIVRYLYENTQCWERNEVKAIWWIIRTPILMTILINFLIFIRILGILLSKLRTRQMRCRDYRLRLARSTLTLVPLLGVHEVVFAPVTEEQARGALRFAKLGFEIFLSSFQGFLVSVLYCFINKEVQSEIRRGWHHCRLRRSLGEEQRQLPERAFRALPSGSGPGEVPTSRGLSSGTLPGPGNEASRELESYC

T2: recombinant wild type GIP receptor (GIPR) expressed in HEK293T cells (Homo sapiens (Human), UniProt P48546)
T2 sequence: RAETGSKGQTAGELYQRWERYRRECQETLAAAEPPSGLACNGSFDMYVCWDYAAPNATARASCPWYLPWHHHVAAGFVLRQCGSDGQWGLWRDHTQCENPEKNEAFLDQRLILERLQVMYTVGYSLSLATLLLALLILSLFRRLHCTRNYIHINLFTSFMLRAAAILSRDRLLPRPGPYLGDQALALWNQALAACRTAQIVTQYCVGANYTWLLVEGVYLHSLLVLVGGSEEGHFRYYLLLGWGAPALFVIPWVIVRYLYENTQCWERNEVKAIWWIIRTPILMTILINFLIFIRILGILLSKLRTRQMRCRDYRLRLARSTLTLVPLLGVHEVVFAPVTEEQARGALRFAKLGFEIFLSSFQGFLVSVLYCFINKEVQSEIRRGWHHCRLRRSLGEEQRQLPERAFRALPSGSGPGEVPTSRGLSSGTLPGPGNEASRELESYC


Columns and labels:
GIP receptor (GIPR) = target: T1, GIP receptor (GIPR); experiment: Receptor-activation assay: cAMP production in HEK293T cells expressing recombinant GIP receptor; format: cell-based; settings: for EC50: EC50 values (-Log EC50, mean ± SEM)
Procedure: (§1) Vector, transfection, and receptor-activation assay. […] The treated peptides were frozen at −80 C before testing with transfected cells. Receptor-activation activities were assayed based on cAMP production in transfected cells, and were performed as described44. The receptor-activation results were analyzed using the GraphPad Prism 5 package.

[1] = Resistance to serum degradation: peptides incubated with human serum at 37 C, then tested for receptor activation; settings: pooled normal human serum or pooled complement-preserved human serum, in vitro
Procedure: as §1

[2] = tested on: fasting Sprague-Dawley rats; experiment: In vivo glucose suppression assay; design: species or system rat; settings: for blood glucose after exogenous glucose: 100 nmoles/kg peptide with glucose 3.8 g/kg intraperitoneal, 1 hr after injection
Procedure: The in vivo glucose suppression assay. Eight-week-old Sprague-Dawley rats were fasted overnight for 20 hours. […] Bloods were obtained via the tail vein at select time points after intraperitoneal injection of glucose with a peptide. Glucose levels in the blood were measured by an OneTouch Ultra Blood Glucose Monitoring System and OneTouch Ultra Test Strips (Johnson and Johnson).

[3] = target: T2, recombinant wild type GIP receptor …; experiment: cell-based or functional assay
[4] = target: T2, recombinant wild type GIP receptor …; experiment: cell-based or functional assay; remark: listed apart in the source

Molecule	resistance to degradation by human serum, relative to GIP [1]	blood glucose after exogenous glucose [2]	-Log EC50 of cAMP production; peptide incubated 0 hr with pooled complement preserved human serum [3]	-Log EC50 of cAMP production; peptide incubated 0 hr with pooled human serum [3]	-Log EC50 of cAMP production; peptide incubated 3 hr with pooled complement preserved human serum [3]	-Log EC50 of cAMP production; peptide incubated 3 hr with pooled human serum [3]	-Log EC50 of cAMP production; peptide incubated 6 hr with pooled complement preserved human serum [3]	-Log EC50 of cAMP production; peptide incubated 6 hr with pooled human serum [3]	-Log EC50 of cAMP production; peptide incubated 12 hr with pooled complement preserved human serum [3]	-Log EC50 of cAMP production; peptide incubated 12 hr with pooled human serum [3]	EC50 of cAMP production in GIPR-expressing HEK293T cells [4]	other results
CC[C@H](C)[C@H](NC(=O)[C@H](CO)NC(=O)[C@H](Cc1ccc(O)cc1)NC(=O)[C@H](CC(=O)O)NC(=O)[C@H](CO)NC(=O)[C@@H](NC(=O)[C@H](Cc1ccccc1)NC(=O)[C@@H](NC(=O)CNC(=O)[C@H](CCC(=O)O)NC(=O)[C@H](C)NC(=O)[C@@H](N)Cc1ccc(O)cc1)[C@@H](C)O)[C@@H](C)CC)C(=O)N[C@@H](C)C(=O)N[C@@H](CCSC)C(=O)N[C@@H](CC(=O)O)C(=O)N[C@@H](CCCCN)C(=O)N[C@H](C(=O)N[C@@H](Cc1c[nH]cn1)C(=O)N[C@@H](CCC(N)=O)C(=O)N[C@@H](CCC(N)=O)C(=O)N[C@@H](CC(=O)O)C(=O)N[C@@H](Cc1ccccc1)C(=O)N[C@H](C(=O)N[C@@H](CC(N)=O)C(=O)N[C@@H](Cc1c[nH]c2ccccc12)C(=O)N[C@@H](CC(C)C)C(=O)N[C@@H](CC(C)C)C(=O)N[C@@H](C)C(=O)N[C@@H](CCC(N)=O)C(=O)N[C@@H](CCCCN)C(=O)NCC(=O)N[C@@H](CCCCN)C(=O)N[C@@H](CCCCN)C(=O)N[C@@H](CC(N)=O)C(=O)N[C@@H](CC(=O)O)C(=O)N[C@@H](Cc1c[nH]c2ccccc12)C(=O)N[C@@H](CCCCN)C(=O)N[C@@H](Cc1c[nH]cn1)C(=O)N[C@@H](CC(N)=O)C(=O)N[C@H](C(=O)N[C@H](C(=O)N[C@@H](CCC(N)=O)C(=O)N[C@@H](CCCNC(=N)N)C(=O)N[C@@H](CCC(=O)O)C(=O)N[C@@H](C)C(=O)N[C@@H](CCCNC(=N)N)C(=O)N[C@@H](C)C(=O)N[C@@H](CC(C)C)C(=O)N[C@@H](CCC(=O)O)C(=O)N[C@@H](CC(C)C)C(=O)N[C@@H](C)C(=O)N[C@@H](CO)C(=O)N[C@@H](CCC(N)=O)C(=O)N[C@@H](C)C(=O)N[C@@H](CC(N)=O)C(=O)O)[C@@H](C)O)[C@@H](C)CC)C(C)C)[C@@H](C)CC [GIP55S]	significantly more resistant to degradation	reduced glucose contents in the blood to basal levels	–	–	–	–	–	–	–	–	–	ranking of potency (GIP receptor (GIPR); 0 hr of human serum treatment (normal or complement preserved)): GIP>GIP55G>GIP55S; ranking of potency (GIP receptor (GIPR); 6 hr after treatment with human serum (normal or complement preserved)): GIP=GIP55G=GIP55S; ranking of potency (GIP receptor (GIPR); 12 hr after treatment with human serum (normal or complement preserved)): GIP55G>GIP55S≧GIP; lower potency relative to conventional GIP (GIP receptor (GIPR); EC50 compared with GIP, no serum treatment): ~3 fold; EC50 (GIP receptor (GIPR); with pooled complement preserved human serum, 0 hours of incubation): 3.72 nM; EC50 (GIP receptor (GIPR); with pooled complement preserved human serum, 3 hours of incubation): 3.24 nM; EC50 (GIP receptor (GIPR); with pooled complement preserved human serum, 6 hours of incubation): 16.2 nM; EC50 (GIP receptor (GIPR); with pooled complement preserved human serum, 12 hours of incubation): 75.9 nM; EC50 (GIP receptor (GIPR); with pooled human serum, 0 hours of incubation): 2.75 nM; EC50 (GIP receptor (GIPR); with pooled human serum, 3 hours of incubation): 4.57 nM; EC50 (GIP receptor (GIPR); with pooled human serum, 6 hours of incubation): 18.2 nM; EC50 (GIP receptor (GIPR); with pooled human serum, 12 hours of incubation): 41.7 nM; cAMP production in GIP receptor-expressing HEK293T cells (GIP receptor (GIPR); cells treated with synthetic peptides for 12 hr, total cAMP in cell lysates): dose-dependent increases of cAMP production; suppression of hyperglycemia ([2]; compared with conventional mature GIP): suppress hyperglycemias to similar extents
CC[C@H](C)[C@H](NC(=O)[C@H](CO)NC(=O)[C@H](Cc1ccc(O)cc1)NC(=O)[C@H](CC(=O)O)NC(=O)[C@H](CO)NC(=O)[C@@H](NC(=O)[C@H](Cc1ccccc1)NC(=O)[C@@H](NC(=O)CNC(=O)[C@H](CCC(=O)O)NC(=O)[C@H](C)NC(=O)[C@@H](N)Cc1ccc(O)cc1)[C@@H](C)O)[C@@H](C)CC)C(=O)N[C@@H](C)C(=O)N[C@@H](CCSC)C(=O)N[C@@H](CC(=O)O)C(=O)N[C@@H](CCCCN)C(=O)N[C@H](C(=O)N[C@@H](Cc1c[nH]cn1)C(=O)N[C@@H](CCC(N)=O)C(=O)N[C@@H](CCC(N)=O)C(=O)N[C@@H](CC(=O)O)C(=O)N[C@@H](Cc1ccccc1)C(=O)N[C@H](C(=O)N[C@@H](CC(N)=O)C(=O)N[C@@H](Cc1c[nH]c2ccccc12)C(=O)N[C@@H](CC(C)C)C(=O)N[C@@H](CC(C)C)C(=O)N[C@@H](C)C(=O)N[C@@H](CCC(N)=O)C(=O)N[C@@H](CCCCN)C(=O)NCC(=O)N[C@@H](CCCCN)C(=O)N[C@@H](CCCCN)C(=O)N[C@@H](CC(N)=O)C(=O)N[C@@H](CC(=O)O)C(=O)N[C@@H](Cc1c[nH]c2ccccc12)C(=O)N[C@@H](CCCCN)C(=O)N[C@@H](Cc1c[nH]cn1)C(=O)N[C@@H](CC(N)=O)C(=O)N[C@H](C(=O)N[C@H](C(=O)N[C@@H](CCC(N)=O)C(=O)O)[C@@H](C)O)[C@@H](C)CC)C(C)C)[C@@H](C)CC [GIP, Gastric inhibitory polypeptide, reference compound]	–	reduced glucose contents in the blood to basal levels	–	–	–	–	–	–	–	–	–	–
CC[C@H](C)[C@H](NC(=O)[C@H](CO)NC(=O)[C@H](Cc1ccc(O)cc1)NC(=O)[C@H](CC(=O)O)NC(=O)[C@H](CO)NC(=O)[C@@H](NC(=O)[C@H](Cc1ccccc1)NC(=O)[C@@H](NC(=O)CNC(=O)[C@H](CCC(=O)O)NC(=O)[C@H](C)NC(=O)[C@@H](N)Cc1ccc(O)cc1)[C@@H](C)O)[C@@H](C)CC)C(=O)N[C@@H](C)C(=O)N[C@@H](CCSC)C(=O)N[C@@H](CC(=O)O)C(=O)N[C@@H](CCCCN)C(=O)N[C@H](C(=O)N[C@@H](Cc1c[nH]cn1)C(=O)N[C@@H](CCC(N)=O)C(=O)N[C@@H](CCC(N)=O)C(=O)N[C@@H](CC(=O)O)C(=O)N[C@@H](Cc1ccccc1)C(=O)N[C@H](C(=O)N[C@@H](CC(N)=O)C(=O)N[C@@H](Cc1c[nH]c2ccccc12)C(=O)N[C@@H](CC(C)C)C(=O)N[C@@H](CC(C)C)C(=O)N[C@@H](C)C(=O)N[C@@H](CCC(N)=O)C(=O)N[C@@H](CCCCN)C(=O)NCC(=O)N[C@@H](CCCCN)C(=O)N[C@@H](CCCCN)C(=O)N[C@@H](CC(N)=O)C(=O)N[C@@H](CC(=O)O)C(=O)N[C@@H](Cc1c[nH]c2ccccc12)C(=O)N[C@@H](CCCCN)C(=O)N[C@@H](Cc1c[nH]cn1)C(=O)N[C@@H](CC(N)=O)C(=O)N[C@H](C(=O)N[C@H](C(=O)N[C@@H](CCC(N)=O)C(=O)N[C@@H](CCCNC(=N)N)C(=O)N[C@@H](CCC(=O)O)C(=O)N[C@@H](C)C(=O)N[C@@H](CCCNC(=N)N)C(=O)N[C@@H](C)C(=O)N[C@@H](CC(C)C)C(=O)N[C@@H](CCC(=O)O)C(=O)N[C@@H](CC(C)C)C(=O)N[C@@H](C)C(=O)NCC(=O)N[C@@H](CCC(N)=O)C(=O)N[C@@H](C)C(=O)N[C@@H](CC(N)=O)C(=O)O)[C@@H](C)O)[C@@H](C)CC)C(C)C)[C@@H](C)CC [GIP55G]	significantly more resistant to degradation	–	–	–	–	–	–	–	–	–	–	–
GIP55G, extended 55-amino-acid GIP isoform encoded by the derived G-44394131 allele (G103) (ligand) peptide: YAEGTFISDYSIAMDKIHQQDFVNWLLAQKGKKNDWKHNITQREARALELAGQAN	–	–	8.51 -Log EC50	8.47 -Log EC50	8.22 -Log EC50	8.32 -Log EC50	7.88 -Log EC50	8.02 -Log EC50	7.86 -Log EC50	7.93 -Log EC50	3.2 nM	–
GIP55S, extended 55-amino-acid GIP isoform encoded by the ancestral A-44394131 allele (S103) (ligand) peptide: YAEGTFISDYSIAMDKIHQQDFVNWLLAQKGKKNDWKHNITQREARALELASQAN	–	–	8.43 -Log EC50	8.56 -Log EC50	8.49 -Log EC50	8.34 -Log EC50	7.79 -Log EC50	7.74 -Log EC50	7.12 -Log EC50	7.38 -Log EC50	2.6 nM	–
